Results as given in ChEMBL document CHEMBL1201862, “PubChem BioAssay data set” (2004).
Active and inactive are the calls of the source. Rule as the data show it, for most assays here: actives have a measured EC50 and inactives only a lower limit.

Columns and labels:
[1] = NIH-3T3 fibroblast cytotoxicity, dose response, cytotoxicity control, cell-based, fluorescence, Alamar Blue, secondary assay (AID 2327); format: functional;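 also: NIH-3T3 mouse fibroblasts cultured with fluconazole at 8 µg/mL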
[2] = C. albicans growth with fluconazole, confirmation, fluorescence, retest (AID 2467); format: functional, cell-based
[3] = target: Luciferin 4-monooxygenase (Photinus pyralis, UniProt P08659); experiment: firefly luciferase enzyme inhibitors, dose response, biochemical, luminescence (AID 1891)
[4] = target: T1, Heat shock factor protein 1 (Mus musculus, UniProt P38532); experiment: HSF1 potentiators in luciferase reporter cells, confirmation, cell-based, NIH3T3, luminescence, dose retest (AID 435004); format: functional;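 also: stress induced by proteasome inhibitor MG132 added 30 min after compound; luciferase reporter driven by HSF1 response element in NIH3T3 cells; actives raise luminescence as potentiators of the MG132 stress response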
T1 sequence (P38532 whole entry): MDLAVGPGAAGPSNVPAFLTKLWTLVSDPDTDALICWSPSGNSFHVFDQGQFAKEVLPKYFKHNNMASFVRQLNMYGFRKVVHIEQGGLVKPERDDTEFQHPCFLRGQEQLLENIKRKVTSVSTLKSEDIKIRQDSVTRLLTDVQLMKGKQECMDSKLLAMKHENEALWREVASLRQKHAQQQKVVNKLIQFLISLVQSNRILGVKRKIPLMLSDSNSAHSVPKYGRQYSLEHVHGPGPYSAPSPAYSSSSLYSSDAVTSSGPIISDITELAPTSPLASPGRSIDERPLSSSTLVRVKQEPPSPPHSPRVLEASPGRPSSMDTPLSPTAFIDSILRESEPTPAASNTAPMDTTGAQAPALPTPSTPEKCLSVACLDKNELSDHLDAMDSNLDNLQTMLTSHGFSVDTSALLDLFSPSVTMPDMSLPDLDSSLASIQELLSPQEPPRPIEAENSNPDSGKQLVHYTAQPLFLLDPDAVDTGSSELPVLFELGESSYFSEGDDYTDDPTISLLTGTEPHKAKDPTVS

BJ [5] = experiment: cytotoxicity toward BJ-TERT fibroblasts, dose response, cell-based, RAS-independent, luminescence (AID 1933); format: functional; details: Homo sapiens
BJ [6] = experiment: cells; format: functional, cell-based; details: Homo sapiens
[7] = cytotoxicity toward DRD oncogenic fibroblasts, dose response, cell-based, non-viral oncogenic, luminescence (AID 1934); format: functional; details: Homo sapiens
BJ [8] = experiment: cytotoxicity toward BJ-TERT-LT-ST fibroblasts, dose response, cell-based, RAS-independent, luminescence (AID 1935); format: functional; details: Homo sapiens;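 also: BJ fibroblasts immortalized with TERT plus LT and ST oncogenes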
[9] = cytotoxicity toward NIH3T3 fibroblasts, dose response, counter-screen, cell-based, ATP luminescence, mouse fibroblasts (AID 2010); format: functional;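 also: cells exposed to compound for about 90 hours before reading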
[10] = inhibitors of intracellular T. cruzi replication, confirmation, NIH3T3 host cells, beta-gal luminescence (AID 2044); format: functional, cell-based;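 also: intracellular parasites grown in NIH/3T3 mouse fibroblasts as host cells; luminescent beta-galactosidase reporter signal from transgenic T. cruzi replicating inside host cells; inhibitors lower the luminescence signal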
Streptokinase A = target: T2, Streptokinase A (Streptococcus pyogenes serotype M1, UniProt P10520); experiment: S. pyogenes streptokinase expression inhibitors, potency, dose response, plasminogen activation absorbance, OD405 (AID 1914); format: functional, Streptococcus pyogenes M1 GAS;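 also: secreted streptokinase activity via plasminogen activation per viability signal from cell pellet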
T2 sequence (P10520 whole entry): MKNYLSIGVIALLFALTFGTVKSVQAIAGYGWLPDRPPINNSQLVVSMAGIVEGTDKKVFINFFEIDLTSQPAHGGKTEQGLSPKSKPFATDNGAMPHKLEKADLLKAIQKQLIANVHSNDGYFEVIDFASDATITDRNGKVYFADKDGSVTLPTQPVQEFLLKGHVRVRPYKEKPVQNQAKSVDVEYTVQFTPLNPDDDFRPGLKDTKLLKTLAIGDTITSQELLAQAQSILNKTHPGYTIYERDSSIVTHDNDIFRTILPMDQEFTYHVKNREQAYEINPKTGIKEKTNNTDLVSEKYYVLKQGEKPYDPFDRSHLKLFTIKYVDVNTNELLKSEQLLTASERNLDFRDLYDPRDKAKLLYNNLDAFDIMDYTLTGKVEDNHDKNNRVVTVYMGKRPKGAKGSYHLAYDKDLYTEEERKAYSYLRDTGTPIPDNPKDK

Streptococcus = experiment: Group A Streptococcus viability loss, dose response, counter-screen for streptokinase expression inhibitor project, luminescence, BacTiterGlo (AID 1915); format: functional, organism-based;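 also: potency for reduction of bacterial viability or growth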
[11] = target: T3, Corticotropin-releasing factor receptor 2/Corticotropin-releasing factor-binding protein (Homo sapiens, UniProt P24387+Q13324); experiment: Dose Response confirmation of uHTS hits for small molecule antagonists of the CRF-binding protein and CRF-R2 receptor complex.; format: functional; details: read-out: IC50_Mean
T3 sequence (Q13324 whole entry): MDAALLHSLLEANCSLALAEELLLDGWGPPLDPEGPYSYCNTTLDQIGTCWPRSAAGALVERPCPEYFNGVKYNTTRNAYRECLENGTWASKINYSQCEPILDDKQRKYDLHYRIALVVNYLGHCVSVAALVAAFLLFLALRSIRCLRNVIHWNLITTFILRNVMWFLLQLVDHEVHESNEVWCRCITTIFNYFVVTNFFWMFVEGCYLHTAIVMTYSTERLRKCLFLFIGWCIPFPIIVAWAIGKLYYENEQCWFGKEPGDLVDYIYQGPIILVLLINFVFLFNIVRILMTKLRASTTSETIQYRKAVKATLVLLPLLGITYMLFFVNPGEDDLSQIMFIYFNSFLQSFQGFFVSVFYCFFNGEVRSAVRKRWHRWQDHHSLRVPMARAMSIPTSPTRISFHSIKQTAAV
T3 sequence (P24387 whole entry): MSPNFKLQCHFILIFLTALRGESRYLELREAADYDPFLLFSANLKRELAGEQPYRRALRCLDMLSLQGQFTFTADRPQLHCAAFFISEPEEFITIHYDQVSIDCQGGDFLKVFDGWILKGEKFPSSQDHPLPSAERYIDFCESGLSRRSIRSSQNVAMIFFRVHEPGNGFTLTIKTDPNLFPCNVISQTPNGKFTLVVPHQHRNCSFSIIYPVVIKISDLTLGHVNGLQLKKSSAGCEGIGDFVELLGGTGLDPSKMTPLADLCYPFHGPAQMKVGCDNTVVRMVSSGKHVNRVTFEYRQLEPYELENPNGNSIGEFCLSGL

[12] = system: Streptococcus sp. 'group A'; experiment: growth inhibition of control SK(-) GAS strain, dose response, counter-screen for streptokinase expression inhibitor project, luminescence, kanamycin, BacTiterGlo, confirmation (AID 1900); format: functional, organism-based
[13] = target: T3, Corticotropin-releasing factor receptor 2/Corticotropin-releasing factor-binding protein; experiment: activators of CRF receptor 2 with binding protein – uHTS hits, confirmation (AID 602473); format: functional; details: read-out: EC50_Mean
[14] = control 3'UTR Renilla luciferase suppression, dose response, counter-screen for Shn3 inhibitor project, cell-based, Clone20-Shn3RL, cherry-picked (AID 624133); format: functional
[15] = Shn3 3'UTR reporter inhibitors, dose response, cell-based, Clone20 osteoblasts, firefly luciferase, cherry-picked (AID 624132); format: functional;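 also: firefly luciferase luminescence from reporter carrying the Shn3 3'UTR in osteoblasts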
[16] = inhibitors of firefly luciferase expression or activity, dose response, H4 neuroglioma cells, luminescence (AID 1990); format: functional, cell-based
[17] = Luminescence Cell-Based Dose Response HTS to Identify Inhibitors of 5'UTR Stem-Loop Driven Prion Protein mRNA Translation in H4 Neuroglioblastoma Cells. [Related pubchem assays: 1827 (Project Summary), 1813 (Primary HTS)]; format: functional
[18] = inhibitors of SNCA 5'UTR-driven reporter translation, confirmation, H4 neuroglioma cells, luminescence (AID 1988); format: functional, cell-based
INS1 = experiment: beta cell apoptosis inhibitors, cytokine rescue, dose response, luminescence, retest (AID 449756); format: functional, cell-based; details: Rattus norvegicus;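 also: cell death triggered by IL-1 beta plus TNF-alpha plus IFN-gamma mixture; protective hits raise ATP signal compared with cytokine alone wells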
[19] = Luminescence Cell-Based Dose Retest to Confirm Inhibitors of Cancer Stem Cells. [Related pubchem assays (depositor defined):AID2717, AID2721]; format: functional; details: Homo sapiens
Cytochrome P450 2C9 = Cytochrome P450 2C9 (Homo sapiens, UniProt P11712)
Sequence of Cytochrome P450 2C9 (P11712 whole entry): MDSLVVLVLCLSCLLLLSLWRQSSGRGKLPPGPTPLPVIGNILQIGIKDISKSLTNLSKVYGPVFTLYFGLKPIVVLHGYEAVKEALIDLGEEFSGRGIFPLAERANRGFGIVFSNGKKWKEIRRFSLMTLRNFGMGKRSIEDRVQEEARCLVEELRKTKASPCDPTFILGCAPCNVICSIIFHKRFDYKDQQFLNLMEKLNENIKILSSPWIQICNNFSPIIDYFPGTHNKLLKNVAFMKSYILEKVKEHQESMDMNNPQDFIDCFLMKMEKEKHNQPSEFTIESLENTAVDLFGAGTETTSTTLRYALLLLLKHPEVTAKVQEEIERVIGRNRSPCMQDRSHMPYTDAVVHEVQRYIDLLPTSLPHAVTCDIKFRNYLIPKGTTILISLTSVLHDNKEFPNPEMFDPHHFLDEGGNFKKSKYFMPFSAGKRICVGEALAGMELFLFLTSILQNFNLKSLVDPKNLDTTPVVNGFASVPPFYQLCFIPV

Sequence of Luciferin 4-monooxygenase (P08659 whole entry): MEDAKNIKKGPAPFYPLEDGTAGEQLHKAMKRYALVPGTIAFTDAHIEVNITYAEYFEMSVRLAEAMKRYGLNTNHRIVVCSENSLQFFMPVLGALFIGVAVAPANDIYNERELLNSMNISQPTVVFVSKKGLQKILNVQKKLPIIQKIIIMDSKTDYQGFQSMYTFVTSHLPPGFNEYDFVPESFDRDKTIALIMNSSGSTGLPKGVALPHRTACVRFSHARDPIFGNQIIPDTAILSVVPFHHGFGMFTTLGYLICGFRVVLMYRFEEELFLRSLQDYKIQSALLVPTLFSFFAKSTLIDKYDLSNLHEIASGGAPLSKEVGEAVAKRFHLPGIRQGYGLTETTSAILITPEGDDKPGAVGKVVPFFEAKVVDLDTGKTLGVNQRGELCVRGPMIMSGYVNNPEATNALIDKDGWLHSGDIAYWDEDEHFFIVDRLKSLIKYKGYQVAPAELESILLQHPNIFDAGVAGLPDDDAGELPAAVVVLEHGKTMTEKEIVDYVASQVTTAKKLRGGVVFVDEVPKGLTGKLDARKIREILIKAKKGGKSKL

## Cc1ccc(NC(=O)NCc2ccccn2)c(C)c1
[1]
  EC50: > 160 µM (inactive)
[2]
  EC50: 6.59 µM (active)

## Cc1cccc(NC2=NC(=S)N(c3cccc(C(=O)O)c3)C23CCCCC3)c1
[1]
  EC50: 19.7 µM (inconclusive)
[2]
  EC50: 2.12 µM (active)

## CCCc1nc2oc3c(=O)nc[nH]c3c2c2c1CCCC2
[3]
  EC50: > 112 µM (not active)

## COc1cc2nc(S)nc(NCc3cccs3)c2cc1OC
[4]
  EC50: > 260 µM (inactive)

## CC(=O)n1c(Cl)c(NC(=O)CCl)c2ccccc21
BJ [5]
  EC50: 25.1 µM (active)
BJ [6]
  EC50: > 150 µM (not active)
[7]
  EC50: 29.7 µM (active)
BJ [8]
  EC50: > 150 µM (not active)

## CN(CCCNC(=O)CCCOc1cc(=O)n(C)c2ccccc12)Cc1ccccc1
[9]
  EC50: > 30 µM (not active)
[1]
  EC50: > 160 µM (inactive)
[10]
  EC50: 0.46 µM (active)
[2]
  EC50: > 38 µM (not active)

## Cc1ccc2cccc(NC(=O)C(F)(F)F)c2n1
[4]
  EC50: > 260 µM (inactive)

## Cc1ccccc1NS(=O)(=O)c1ccc(C)c(C(=O)N2CCOCC2)c1
Streptokinase A
  EC50: > 150 µM (not active)
Streptococcus
  EC50: > 150 µM (not active)
[11]
  IC50: > 47.1 µM (inactive)
[12]
  EC50: > 150 µM (not active)
[13]
  EC50: > 53 µM (inactive)

## NC(=O)c1cc(N2C(=O)C=CC2=O)ccc1Cl
[14]
  AC50: 25.5 µM (active)
[15]
  AC50: 11.3 µM (active)

## CN1CC(C(=O)c2ccc(F)cc2)C(c2c(F)cccc2Cl)C1 (stereo not drawn)
[4]
  EC50: > 260 µM (inactive)

## Cc1nc2c(s1)sc1ccccc12
[11]
  IC50: > 47.1 µM (inactive)
[13]
  EC50: > 53 µM (inactive)

## Cc1cc(C)n2nc(/C(C#N)=C/c3ccccc3)c(C#N)c2n1
[11]
  IC50: > 47.1 µM (inactive)
[13]
  EC50: > 53 µM (inactive)

## Cc1nc2cc3[nH]c(C(F)(F)F)nc3cc2[nH]1
[4]
  EC50: > 260 µM (inactive)

## C#CC[N+]1(CC#Cc2ccccc2)CCCCC1
[4]
  EC50: > 260 µM (inactive)

## CCOC(=O)C1CCCN(c2cc(C)nc3cc(-c4ccc(F)cc4)nn23)C1 (stereo not drawn)
[1]
  EC50: > 160 µM (inactive)
[2]
  EC50: > 38 µM (not active)

## Cc1nnc(N2CCC(C(=O)NC3CCC(C)CC3)CC2)c2nn(-c3ccc(Cl)cc3)c(C)c12 (stereo not drawn)
[16]
  EC50: 14.7 µM (active)
[17]
  EC50: > 120 µM (not active)
[18]
  EC50: > 120 µM (not active)

## Cc1ccc(S(=O)(=O)Nc2cc(-c3nn(C)c(=O)c4ccccc34)ccc2N2CCOCC2)cc1
[16]
  EC50: > 60 µM (not active)
[17]
  EC50: > 120 µM (not active)
[18]
  EC50: 10.8 µM (active)

## CCCC1(C(=O)OC)NC(c2ccco2)C2C(=O)N(C)C(=O)C21 (stereo not drawn)
[16]
  EC50: > 120 µM (not active)
[17]
  EC50: > 120 µM (not active)
[18]
  EC50: > 120 µM (not active)

## Cc1ccc(-n2nc3c(c2NC(=O)c2ccc4c(c2)OCO4)CSC3)c(C)c1
[4]
  EC50: > 260 µM (inactive)

## CCOC(=O)C(CC)(CC)C(=O)/C=C/c1cccc(Br)c1
BJ [5]
  EC50: 10 µM (active)
BJ [6]
  EC50: 16.6 µM (active)
[7]
  EC50: 9.57 µM (active)
BJ [8]
  EC50: 10.7 µM (inconclusive)

## CCOC(=O)c1c(C)[nH]c(C)c1S(=O)(=O)N1CCN(c2ccc([N+](=O)[O-])cc2)CC1
[16]
  EC50: 23 µM (active)
[17]
  EC50: > 120 µM (not active)
[18]
  EC50: > 120 µM (not active)

## O=C1c2ccccc2C2=Nc3ccccc3SC(c3ccc(Cl)cc3)C12 (stereo not drawn)
Streptokinase A
  EC50: > 150 µM (not active)
Streptococcus
  EC50: 4.58 µM (active)
[12]
  EC50: 2.87 µM (active)
INS1
  AC50: 14.1 µM (active)
[19]
  AC50: 5.23 µM (active)

## CCCCc1ccc(-c2ccc(C)cc2O)nc1
[17]
  EC50: 11.7 µM (inconclusive)
[18]
  EC50: 4.33 µM (active)

## Cc1ccc(N(C(=O)Cn2nnc(-c3ccccc3)n2)C(C(=O)NC2CCCCC2)c2ccccn2)cc1C (stereo not drawn)
[11]
  IC50: > 47.1 µM (inactive)
[13]
  EC50: > 53 µM (inactive)

## CCOc1ccc(N(CC(=O)NC2CCC(C)CC2)S(=O)(=O)c2c(C)noc2C)cc1 (stereo not drawn)
[11]
  IC50: > 47.1 µM (inactive)
[13]
  EC50: > 53 µM (inactive)

## O=[N+]([O-])c1ccc(N2CCN(S(=O)(=O)c3ccccc3)CC2)cc1NCC1CCCO1 (stereo not drawn)
[16]
  EC50: 18.3 µM (active)
[17]
  EC50: 40.6 µM (active)
[18]
  EC50: 19.2 µM (active)

## COc1ccc(N2CCN(C(=O)c3csc4ccccc34)CC2)cc1
[11]
  IC50: > 47.1 µM (inactive)
[13]
  EC50: > 53 µM (inactive)

## C=CCNC(=S)N/N=C/c1ccc(OCc2ccccc2)cc1
[11]
  IC50: > 47.1 µM (inactive)
Cytochrome P450 2C9
  AC50: 15.8 µM (inconclusive)
[13]
  EC50: > 53 µM (inactive)

## Cc1ccc2c(c1)Oc1ccccc1N=C2
[11]
  IC50: > 47.1 µM (inactive)
[13]
  EC50: > 53 µM (inactive)

## CCOc1ccc(/C=N/NC(=O)CN2CCCCCCC2)cc1
[11]
  IC50: > 47.1 µM (inactive)
[13]
  EC50: > 53 µM (inactive)

## O=C(Nc1ccccc1O)c1ccccc1O
[1]
  EC50: > 150 µM (inactive)
[2]
  EC50: 6.43 µM (active)
